In patent US11661431B2, “Thienopyrrole compounds” (Gilead Sciences, Inc., priority 2021, dated 2023):

Assays:
[1] = target: TLR7 (Homo sapiens (Human), UniProt Q9NYK1); assay: TLR7 human peripheral blood mononuclear cell (PBMC) cell-based assay (GS-986 as agonist; IL-6 and IFNα readout); conditions: human PBMCs, TLR7 agonist GS-986 at 400 nM, 6 hours, antagonist potency; read-out: TLR-7 EC50
Method: Human peripheral blood mononuclear cells (PBMCs) consist of lymphocytes, monocytes and dendritic cells that express TLR7, TLR8 and TLR9. These cells respond to TLR7, TLR8 and TLR9 ligand stimulation and produce cytokines and chemokines in vitro and in vivo. Human PBMCs are therefore suitable to be used in a cell-based assay to assess the in vitro potency of a TLR 7, 8, and/or 9 antagonist.
After counting, the cell density was adjusted to 2 million cells/ml and incubated for 1 hour at 37° C., 5% CO2 for recovery. Following the recovery, the cells were plated by adding 50 μl per well (100,000 cells) to 384-well cell culture plates (Greiner) containing 250 nl of test antagonists in 100% DMSO per well, in a 10 points dose response in quadruplicates. PBMCs were incubated in the presence of test antagonists for one hour at 37° C., 5% CO2 before being stimulated with a TLR7 or TLR9agonist. […] PBMCs were incubated in the presence of the test antagonist and the TLR7 (or TLR9) agonist for an additional 6 hours at 37° C., 5% CO2. At the end of the incubation, the cell culture plates were centrifuged at 500 g for 5 min, and the cell culture supernatant was collected. The level of cytokines (IL-6 and IFNα) in the supernatant was measured by electrochemiluminescence immunoassays (Mesoscale Discovery) following manufacturer's recommended protocols.

[2] = target: TLR8 (Homo sapiens (Human), UniProt Q9NR97); assay: TLR8 human peripheral blood mononuclear cell (PBMC) cell-based assay (Compound A as agonist; TNFα and IL12p40 readout); conditions: human PBMCs, TLR8 agonist Compound A at 800 nM, 6 hours, antagonist potency; read-out: TLR-8 EC50
Chain of TLR8 (Q9NR97 27-1041): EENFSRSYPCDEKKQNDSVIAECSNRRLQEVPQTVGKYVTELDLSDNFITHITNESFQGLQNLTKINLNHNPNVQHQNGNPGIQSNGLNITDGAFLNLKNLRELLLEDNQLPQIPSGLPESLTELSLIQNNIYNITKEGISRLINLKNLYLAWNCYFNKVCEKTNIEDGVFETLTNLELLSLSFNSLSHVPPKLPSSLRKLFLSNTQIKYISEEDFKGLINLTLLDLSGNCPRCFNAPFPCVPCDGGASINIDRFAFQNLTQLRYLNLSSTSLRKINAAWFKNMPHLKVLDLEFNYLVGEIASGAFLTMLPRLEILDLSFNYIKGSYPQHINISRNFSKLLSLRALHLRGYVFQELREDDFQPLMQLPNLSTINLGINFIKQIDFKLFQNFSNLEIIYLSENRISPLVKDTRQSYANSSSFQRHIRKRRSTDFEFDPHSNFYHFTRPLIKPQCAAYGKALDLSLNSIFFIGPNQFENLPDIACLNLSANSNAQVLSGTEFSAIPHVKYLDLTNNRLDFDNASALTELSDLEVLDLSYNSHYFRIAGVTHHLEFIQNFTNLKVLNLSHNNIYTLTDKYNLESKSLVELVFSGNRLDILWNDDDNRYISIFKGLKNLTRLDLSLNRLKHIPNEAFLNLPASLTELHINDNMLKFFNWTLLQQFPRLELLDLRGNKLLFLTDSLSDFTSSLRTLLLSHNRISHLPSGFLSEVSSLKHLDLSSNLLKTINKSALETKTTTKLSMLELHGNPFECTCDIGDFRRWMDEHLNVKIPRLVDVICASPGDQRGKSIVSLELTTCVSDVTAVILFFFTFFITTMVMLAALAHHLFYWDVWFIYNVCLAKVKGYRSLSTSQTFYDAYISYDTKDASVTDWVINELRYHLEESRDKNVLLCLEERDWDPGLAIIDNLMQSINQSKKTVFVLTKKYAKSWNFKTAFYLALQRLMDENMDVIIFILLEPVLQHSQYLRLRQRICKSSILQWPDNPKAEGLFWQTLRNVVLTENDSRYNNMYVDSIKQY
Method: After counting, the cell density was adjusted to 2 million cells/ml and incubated for 1 hour at 37° C., 5% CO2 for recovery. Following the recovery, the cells were plated by adding 50 μl per well (100,000 cells) to 384-well cell culture plates (Greiner) containing 250 nl of test antagonists in 100% DMSO per well, in a 10 points dose response in quadruplicates. PBMCs were incubated in the presence of antagonists for one hour at 37° C., 5% CO2 before being stimulated with TLR8 agonist. […] PBMCs were incubated in the presence of antagonist and the TLR8 agonist for an additional 6 hours at 37° C., 5% CO2. At the end of the incubation, the cell culture plates were centrifuged at 500 g for 5 min, and the cell culture supernatant was collected. The level of cytokines (TNFα and IL12p40) in the supernatant was measured by electrochemiluminescence immunoassays (Mesoscale Discovery) following manufacturer's recommended protocols.

Chain of TLR7 (Q9NYK1 27-1049): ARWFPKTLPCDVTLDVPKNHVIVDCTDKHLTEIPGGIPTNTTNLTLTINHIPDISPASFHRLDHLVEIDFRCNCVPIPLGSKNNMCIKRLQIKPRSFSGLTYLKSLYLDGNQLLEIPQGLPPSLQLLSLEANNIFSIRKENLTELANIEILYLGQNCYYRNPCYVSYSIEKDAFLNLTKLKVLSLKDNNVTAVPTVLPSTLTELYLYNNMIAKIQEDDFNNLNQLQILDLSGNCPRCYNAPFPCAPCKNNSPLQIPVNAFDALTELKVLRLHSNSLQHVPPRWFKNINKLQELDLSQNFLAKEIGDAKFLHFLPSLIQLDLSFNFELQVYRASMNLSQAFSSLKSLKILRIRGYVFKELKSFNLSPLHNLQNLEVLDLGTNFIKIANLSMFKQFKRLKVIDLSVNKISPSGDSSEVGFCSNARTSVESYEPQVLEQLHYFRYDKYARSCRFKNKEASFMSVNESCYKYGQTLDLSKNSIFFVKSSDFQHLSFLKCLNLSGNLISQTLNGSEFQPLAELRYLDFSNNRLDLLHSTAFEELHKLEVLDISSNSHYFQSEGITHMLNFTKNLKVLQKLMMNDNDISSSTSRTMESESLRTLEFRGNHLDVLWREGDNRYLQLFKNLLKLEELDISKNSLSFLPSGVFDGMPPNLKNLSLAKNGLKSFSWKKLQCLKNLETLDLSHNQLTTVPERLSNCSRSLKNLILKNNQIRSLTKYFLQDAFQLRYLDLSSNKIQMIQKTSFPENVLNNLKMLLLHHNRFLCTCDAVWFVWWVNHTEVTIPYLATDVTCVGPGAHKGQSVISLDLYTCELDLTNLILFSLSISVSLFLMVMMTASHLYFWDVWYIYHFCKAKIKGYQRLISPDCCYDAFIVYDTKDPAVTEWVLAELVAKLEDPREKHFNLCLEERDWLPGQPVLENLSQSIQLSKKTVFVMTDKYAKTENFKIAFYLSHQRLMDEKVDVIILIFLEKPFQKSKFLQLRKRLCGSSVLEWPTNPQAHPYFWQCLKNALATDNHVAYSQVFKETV

Cc1c(-c2[nH]c3sc(C4CCN(C(=O)C5CN6CC7CC6(CO5)C7)CC4)c(C)c3c2C(C)C)cn2ncnc2c1C (stereo not drawn) [Example 105]
EC50 [1]: < 0.05 nM | EC50 [2]: 4.17 nM

Cc1c(C2C3CN(CC(N)=O)CC32)sc2[nH]c(-c3cc(C)c4ncnn4c3)c(C(C)C)c12 (stereo not drawn) [Example 202]
EC50 [1]: 2.59 nM | EC50 [2]: 2.97 nM

Cc1cc(-c2[nH]c3sc(C(=O)N4CCNCC4)cc3c2C(C)C)cn2ncnc12 [Example 2]
EC50 [1]: 1.04 nM | EC50 [2]: 5.79 nM

Cc1c([C@H]2C[C@@H]3CN(CC(N)=O)C[C@@H]3C2)sc2[nH]c(-c3cc(C)c4ncnn4c3)c(C(C)C)c12 [Example 70, 2-((3aR,6aS)-5-(4-isopropyl-3-methyl-5-(8-methyl-[1,2,4]triazolo[1,5-a]pyridin-6-yl)-6H-thieno[2,3-b]pyrrol-2-yl)hexahydrocyclopenta[c]pyrrol-2(1H)-yl)acetamide]
EC50 [1]: 0.05 nM | EC50 [2]: 5.95 nM

Cc1c(-c2[nH]c3sc([C@@H]4C[C@@H]5C[C@H]4CN5C(=O)[C@H]4C[C@H](F)CN4)c(C)c3c2C(C)C)cn2ncnc2c1C [Example 148]
EC50 [1]: 0.51 nM | EC50 [2]: 15.9 nM

Cc1c(-c2[nH]c3sc([C@@H]4C[C@@H]5C[C@H]4CN5CC(=O)NC4CC4)c(C)c3c2C(C)C)cn2ncnc2c1C [Example 184]
EC50 [1]: 1.27 nM | EC50 [2]: 0.34 nM

Cc1c(-c2[nH]c3sc(C4CC5(C4)CC(N(C4COC4)C4COC4)C5)c(C)c3c2C(C)C)cn2ncnc2c1C (stereo not drawn) [Example 188]
EC50 [1]: 5.64 nM | EC50 [2]: 27.2 nM

Cc1c(C23CNCCC2C3)sc2[nH]c(-c3cc(C)c4ncnn4c3)c(C(C)C)c12 (stereo not drawn) [Example 194]
EC50 [1]: 0.2 nM | EC50 [2]: 9.52 nM

CNC(=O)CN1CCC(c2sc3[nH]c(-c4cc(C)c5ncnn5c4)c(C(C)C)c3c2C)CC1 [Example 28]
EC50 [1]: 1.06 nM | EC50 [2]: 19.7 nM

Cc1c(-c2[nH]c3sc(C45CCNCC4C5)c(C)c3c2C(C)C)cn2ncnc2c1C (stereo not drawn) [Example 77, 2-(3-azabicyclo[4.1.0]heptan-6-yl)-5-(7,8-dimethyl-[1,2,4]triazolo[1,5-a]pyridin-6-yl)-4-isopropyl-3-methyl-6H-thieno[2,3-b]pyrrole]
EC50 [1]: 0.09 nM | EC50 [2]: 2.89 nM

Cc1c(-c2[nH]c3sc([C@@H]4C[C@@H]5C[C@H]4CN5Cc4c[nH]nn4)c(C)c3c2C(C)C)cn2ncnc2c1C [Example 174]
EC50 [1]: < 0.05 nM | EC50 [2]: 0.09 nM

Cc1c(-c2[nH]c3sc([C@@H]4C[C@@H]5C[C@H]4CN5C(C)C(N)=O)c(C)c3c2C(C)C)cn2ncnc2c1C (stereo partly drawn) [Example 81]
EC50 [1]: 0.19 nM | EC50 [2]: 0.45 nM

Cc1c(-c2[nH]c3sc(C4CCC(N5CC(C)(O)C5)CC4)c(C)c3c2C(C)C)cn2ncnc2c1C (stereo not drawn) [Example 304]
EC50 [1]: < 0.05 nM | EC50 [2]: 1.76 nM

Cc1c(C2CCN(C(=O)[C@H]3COC(C)(C)CN3)CC2)sc2[nH]c(-c3cc(C)c4ncnn4c3)c(C(C)C)c12 [Example 158]
EC50 [1]: 0.15 nM | EC50 [2]: 61.8 nM

Cc1c(-c2[nH]c3sc(C4C[C@H]5C[C@@H]4N(CC(N)=O)C5)c(C)c3c2C(C)C)cn2ncnc2c1C (stereo partly drawn) [Example 114]
EC50 [1]: 0.44 nM | EC50 [2]: 2.71 nM

Cc1c(-c2[nH]c3sc(C4CCN(C(=O)[C@H]5CNCCO5)CC4)c(C)c3c2C(C)C)cn2ncnc2c1C [Example 110]
EC50 [1]: 0.09 nM | EC50 [2]: 6.21 nM

Cc1nc2c(C)cc(-c3[nH]c4sc(C5CCN(C(=O)[C@@H]6COCCN6)CC5)c(C)c4c3C(C)C)cn2n1 [Example 136]
EC50 [1]: 0.68 nM | EC50 [2]: 17.9 nM

Cc1c(C2CCNC2)sc2[nH]c(-c3cc(C)c4ncnn4c3)c(C(C)C)c12 (stereo not drawn) [Example 127]
EC50 [1]: 0.21 nM | EC50 [2]: 1.52 nM

Cc1c(C2CCCN(CC(N)=O)CC2)sc2[nH]c(-c3cc(C)c4ncnn4c3)c(C(C)C)c12 (single isomer, unassigned) [Example 262, 2-(4-(4-isopropyl-3-methyl-5-(8-methyl-[1,2,4]triazolo[1,5-a]pyridin-6-yl)-6H-thieno[2,3-b]pyrrol-2-yl)azepan-1-yl)acetamide]
EC50 [1]: < 0.05 nM | EC50 [2]: 4.54 nM

Cc1c(-c2[nH]c3sc(C4CCN(C5CCN(C)C5=O)CC4)c(C)c3c2C(C)C)cn2ncnc2c1C (stereo not drawn) [Example 288]
EC50 [1]: 2.74 nM | EC50 [2]: 22.6 nM

Cc1c(-c2[nH]c3sc(C4CC(C(=O)N5CCNCC5)C4)c(C)c3c2C(C)C)cn2ncnc2c1C (stereo not drawn) [Example 151, (3-(5-(7,8-dimethyl-[1,2,4]triazolo[1,5-a]pyridin-6-yl)-4-isopropyl-3-methyl-6H-thieno[2,3-b]pyrrol-2-yl)cyclobutyl)(piperazin-1-yl)methanone]
EC50 [1]: 0.26 nM | EC50 [2]: 0.99 nM

Cc1c(-c2[nH]c3sc([C@@H]4C[C@@H]5C[C@H]4CN5Cc4cc[nH]c(=O)c4)c(C)c3c2C(C)C)cn2ncnc2c1C [Example 177]
EC50 [1]: 0.5 nM | EC50 [2]: 0.07 nM

Cc1c(-c2[nH]c3sc([C@@H]4C[C@@H]5C[C@H]4CN5Cc4cccn(C(F)F)c4=O)c(C)c3c2C(C)C)cn2ncnc2c1C [Example 172]
EC50 [1]: 3.03 nM | EC50 [2]: 0.82 nM

Cc1c(C2CCN(C(C)C(N)=O)CC2)sc2[nH]c(-c3cc(C)c4ncnn4c3)c(C(C)C)c12 (stereo not drawn) [Example 27]
EC50 [1]: 0.25 nM | EC50 [2]: 8.43 nM

Cc1c(-c2[nH]c3sc(C4CCC(N5CC6(CCNC6=O)C5)CC4)c(C)c3c2C(C)C)cn2ncnc2c1C (single isomer, unassigned) [Example 306, 2-[4-[5-(7,8-dimethyl-[1,2,4]triazolo[1,5-a]pyridin-6-yl)-4-isopropyl-3-methyl-6H-thieno[2,3-b]pyrrol-2-yl]cyclohexyl]-2,6-diazaspiro[3.4]octan-5-one]
EC50 [1]: < 0.05 nM | EC50 [2]: 0.49 nM

COc1cc(-c2[nH]c3sc(C4CCNCC4)c(C)c3c2C(C)C)cn2ncnc12 [Example 246, 4-isopropyl-5-(8-methoxy-[1,2,4]triazolo[1,5-a]pyridin-6-yl)-3-methyl-2-(piperidin-4-yl)-6H-thieno[2,3-b]pyrrole]
EC50 [1]: 0.09 nM | EC50 [2]: 8.94 nM

Cc1c(-c2[nH]c3sc([C@@H]4C[C@@H]5C[C@H]4CN5CCS(C)(=O)=O)c(C)c3c2C(C)C)cn2ncnc2c1C [Example 83]
EC50 [1]: 0.45 nM | EC50 [2]: 0.61 nM

Cc1c(C2CCN(CC(N)=O)CC2)sc2[nH]c(-c3cc(C)c4nnnn4c3)c(C(C)C)c12 [Example 236]
EC50 [1]: 1.94 nM | EC50 [2]: 21.8 nM

Cc1c(-c2[nH]c3sc(C4CC5(CCN(CCS(C)(=O)=O)C5)C4)c(C)c3c2C(C)C)cn2ncnc2c1C (single isomer, unassigned) [Example 314, 5-(7,8-dimethyl-[1,2,4]triazolo[1,5-a]pyridin-6-yl)-4-isopropyl-3-methyl-2-(6-(2-(methylsulfonyl)ethyl)-6-azaspiro[3.4]octan-2-yl)-6H-thieno[2,3-b]pyrrole]
EC50 [1]: 10 nM | EC50 [2]: 1.22 nM

Cc1c(C2C3CNCC32)sc2[nH]c(-c3cc(C)c4ncnn4c3)c(C(C)C)c12 (stereo not drawn) [Example 201]
EC50 [1]: < 0.05 nM | EC50 [2]: 0.36 nM

Cc1c(-c2[nH]c3sc(C4CCN(C(=O)[C@H]5C[C@@]6(CN(CC(F)F)CCO6)C5)CC4)c(C)c3c2C(C)C)cn2ncnc2c1C [Example 298, [8-(2,2-difluoroethyl)-5-oxa-8-azaspiro[3.5]nonan-2-yl]-[4-[5-(7,8-dimethyl-[1,2,4]triazolo[1,5-a]pyridin-6-yl)-4-isopropyl-3-methyl-6H-thieno[2,3-b]pyrrol-2-yl]-1-piperidyl]methanone]
EC50 [1]: < 0.05 nM | EC50 [2]: 12.2 nM

Cc1c(C2CCN(CC(N)=O)CC2)sc2[nH]c(-c3cc(C)c4nccn4c3)c(C(C)C)c12 [Example 237]
EC50 [1]: 0.29 nM | EC50 [2]: 69.3 nM

Cc1cc(-c2[nH]c3sc(C4CCN(CC(N)=O)CC4)cc3c2C(C)C)cn2ncnc12 [Example 26]
EC50 [1]: 0.68 nM | EC50 [2]: 1.61 nM

Cc1c(-c2[nH]c3sc(C4CCN(C5CCNC5=O)CC4)c(C)c3c2C(C)C)cn2ncnc2c1C (stereo not drawn) [Example 287, 3-[4-[5-(7,8-dimethyl-[1,2,4]triazolo[1,5-a]pyridin-6-yl)-4-isopropyl-3-methyl-6H-thieno[2,3-b]pyrrol-2-yl]-1-piperidyl]pyrrolidin-2-one]
EC50 [1]: 0.43 nM | EC50 [2]: 12.4 nM

Cc1c(-c2[nH]c3sc(C4CC5(CNCCO5)C4)c(C)c3c2C(C)C)cn2ncnc2c1C (single isomer, unassigned) [Example 89, 2-(5-(7,8-dimethyl-[1,2,4]triazolo[1,5-a]pyridin-6-yl)-4-isopropyl-3-methyl-6H-thieno[2,3-b]pyrrol-2-yl)-5-oxa-8-azaspiro[3.5]nonane]
EC50 [1]: 0.2 nM
